Assay results as given in paper PMC7248693, “Synthesis and Biological Evaluation of 2-Substituted Benzyl-/Phenylethylamino-4-amino-5-aroylthiazoles as Apoptosis-Inducing Anticancer Agents” (Molecules, 2020).

Key:
SK-MEL-1 = assay: Antiproliferative activity, MTT assay, SK-MEL-1 cells; assay type: cell-based, human; conditions: for IC50: Homo sapiens, SK-MEL-1, 72 h, MTT, mean ± SE, at least three independent experiments
Source text: (§1) In Table 1, we summarize the antiproliferative activity of the 15 novel 2-arylalkylamino-4-amino-5-(3′,4′,5′-trimethoxybenzoyl)thiazole derivatives 8a–o against human leukemia (U-937) and melanoma (SK-MEL-1) tumor cells lines.
(§2) Human U-937 and SK-MEL-1 cell lines were from the German Collection of Microorganisms and Cell Cultures (Braunschweig, Germany; DSMZ No: ACC 5 and ACC 303, respectively). The U-937 is a myeloid leukemia cell line isolated from a histiocytic lymphoma. SK-MEL-1 is a melanoma cell line. Cells were cultured in suspension in RPMI 1640 medium supplemented with 10% (v/v) fetal bovine serum and antibiotics (100 μg mL^−1 streptomycin and 100 U mL^−1 penicillin), at 37 °C in a humidified atmosphere containing 5% CO2. The trypan blue exclusion method was used for counting the cells by a hemocytometer, and cell viability was always greater than 95% in all experiments. Compounds were dissolved in DMSO, and further dilutions were made in culture medium just before use. […] The effects on cell viability of synthetic compounds were determined using a colorimetric assay with the reduction of 3-(4,5-dimethyl-2-thiazolyl-)-2,5-diphenyl-2H-tetrazolium bromide (MTT) as previously described. Briefly, 5 × 10^3 cells were seeded in 96-well microculture plates with increasing concentrations of compounds for 72 h. Then, MTT (0.5 mg mL^−1) was added and incubated for 4 h, and the reaction was stopped with 20% sodium dodecyl sulfate. A570 was used as a measure of cell viability. Concentrations inducing a 50% inhibition of cell growth were determined graphically by nonlinear regression using the curve-fitting algorithm of GraphPad Prism 4.0 (GraphPad Inc La Jolla, CA, USA).

U-937 = assay: Antiproliferative activity, MTT assay, U-937 cells; assay type: cell-based, human; conditions: for IC50: Homo sapiens, U-937, 72 h, MTT, mean ± SE, at least three independent experiments; for fold more potent than p-methoxy counterpart 8j: antiproliferative activity, cell line not specified (U-937 and SK-MEL-1)
Source text: as §1, §2

Row | SMILES | IC50 (SK-MEL-1) [µM] | IC50 (U-937) [µM] | melting point [°C] | increase in potency relative to 8a and 8b (U-937; U-937 cells) [fold] | fold more potent than 8f (SK-MEL-1; SK-MEL-1 cells) [fold] | fold more potent than p-methoxy counterpart 8j (U-937) [fold]
1 | COc1ccc(-c2nc(N)c(C(=O)c3cc(OC)c(OC)c(OC)c3)s2)cc1 [1a, reference compound] | 48.3 ± 4.6 | 34.3 ± 2.2 | – | – | – | –
2 | COc1cc(C(=O)c2sc(NCCc3ccccc3)nc2N)cc(OC)c1OC [8b, (4-Amino-2-(phenethylamino)thiazol-5-yl)(3,4,5-trimethoxyphenyl)methanone] | 20.5 ± 6.9 | 19.3 ± 5.6 | 135 to 138 | – | – | –
3 | COc1cc(C(=O)c2sc(NCc3ccc(F)cc3)nc2N)cc(OC)c1OC [8d, (4-Amino-2-((4-fluorobenzyl)amino)thiazol-5-yl)(3,4,5-trimethoxyphenyl)methanone] | 51 ± 1.4 | 39.1 ± 4.2 | 132 to 134 | – | – | –
4 | COc1cc(C(=O)c2sc(NCc3ccc(C)cc3)nc2N)cc(OC)c1OC [8h, (4-Amino-2-((4-methylbenzyl)amino)thiazol-5-yl)(3,4,5-trimethoxyphenyl)methanone] | 19 ± 9.4 | 15.4 ± 4.9 | 145 to 147 | – | – | –
5 | COc1cc(C(=O)c2sc(NCc3cccc(C)c3)nc2N)cc(OC)c1OC [8i, (4-Amino-2-((3-methylbenzyl)amino)thiazol-5-yl)(3,4,5-trimethoxyphenyl)methanone] | 16.7 ± 5.6 | 18.1 ± 6.4 | 150 to 152 | – | – | –
6 | COc1ccc(CNc2nc(N)c(C(=O)c3cc(OC)c(OC)c(OC)c3)s2)cc1 [8j, (4-Amino-2-((4-methoxybenzyl)amino)thiazol-5-yl)(3,4,5-trimethoxyphenyl)methanone] | 22.9 ± 13.7 | 23.8 ± 5.2 | 131 to 135 | – | – | –
7 | COc1ccc(CNc2nc(N)c(C(=O)c3cc(OC)c(OC)c(OC)c3)s2)cc1OC [8n, (4-Amino-2-((3,4-dimethoxybenzyl)amino)thiazol-5-yl)(3,4,5-trimethoxyphenyl)methanone] | 32.7 ± 7.7 | 28.7 ± 10.5 | 107 to 111 | – | – | –
8 | COc1cc(C(=O)c2sc(NCc3ccc4c(c3)OCO4)nc2N)cc(OC)c1OC [8o, (4-Amino-2-((benzo[d][1,3]dioxol-5-ylmethyl)amino)thiazol-5-yl)(3,4,5-trimethoxyphenyl) methanone] | 24.7 ± 1 | 27 ± 0.9 | 156 to 158 | – | – | –

The next lines start with results.

Row | IC50 (SK-MEL-1) [µM] | IC50 (U-937) [µM] | melting point [°C] | SMILES | increase in potency relative to 8a and 8b (U-937; U-937 cells) [fold] | fold more potent than 8f (SK-MEL-1; SK-MEL-1 cells) [fold] | fold more potent than p-methoxy counterpart 8j (U-937) [fold]
9 | 5.2 ± 1.4 | 0.484 ± 0.368 | – | COc1ccc(Nc2nc(N)c(C(=O)c3cc(OC)c(OC)c(OC)c3)s2)cc1 [2a, reference compound] | – | – | –
10 | 14.2 ± 9.7 | 21.1 ± 5.1 | 147 to 149 | COc1cc(C(=O)c2sc(NCc3ccccc3)nc2N)cc(OC)c1OC [8a, (4-Amino-2-(benzylamino)thiazol-5-yl)(3,4,5-trimethoxyphenyl)methanone] | – | – | –
11 | 16.7 ± 7 | 10.7 ± 2.8 | – | COc1cc(C(=O)c2sc(NCCCc3ccccc3)nc2N)cc(OC)c1OC [8c, (4-Amino-2-((3-phenylpropyl)amino)thiazol-5-yl)(3,4,5-trimethoxyphenyl)methanone] | 2 | – | –
12 | 8.3 ± 5.5 | 8.7 ± 5.4 | 156 to 159 | COc1cc(C(=O)c2sc(NCc3ccc(Cl)cc3)nc2N)cc(OC)c1OC [8e, (4-Amino-2-((4-chlorobenzyl)amino)thiazol-5-yl)(3,4,5-trimethoxyphenyl)methanone] | – | 1.5 | –
13 | 15.7 ± 4.9 | 12.9 ± 3.3 | 154 to 157 | COc1cc(C(=O)c2sc(NCc3ccc(Br)cc3)nc2N)cc(OC)c1OC [8g, (4-Amino-2-((4-bromobenzyl)amino)thiazol-5-yl)(3,4,5-trimethoxyphenyl)methanone] | – | – | –
14 | 12.4 ± 4.8 | 12.3 ± 6.1 | 125 to 128 | COc1cccc(CNc2nc(N)c(C(=O)c3cc(OC)c(OC)c(OC)c3)s2)c1 [8l, (4-Amino-2-((3-methoxybenzyl)amino)thiazol-5-yl)(3,4,5-trimethoxyphenyl)methanone] | – | – | 2
15 | 10.4 ± 2.8 | 13.6 ± 5.3 | – | COc1ccccc1CNc1nc(N)c(C(=O)c2cc(OC)c(OC)c(OC)c2)s1 [8m, (4-Amino-2-((2-methoxybenzyl)amino)thiazol-5-yl)(3,4,5-trimethoxyphenyl)methanone] | – | – | 2
16 | 0.274 ± 0.07 | 0.083 ± 0.021 | – | COc1cccc2c1C(=O)c1c(O)c3c(c(O)c1C2=O)C[C@@](O)(C(=O)CO)C[C@@H]3O[C@H]1C[C@H](N)[C@H](O)[C@H](C)O1 [Doxorubicin, reference compound] | – | – | –
17 | 6.3 ± 1 | 2.1 ± 0.4 | – | COc1cc([C@@H]2c3cc4c(cc3[C@@H](O[C@@H]3O[C@@H]5CO[C@@H](C)O[C@H]5[C@H](O)[C@H]3O)[C@H]3COC(=O)[C@H]23)OCO4)cc(OC)c1O [Etoposide, reference compound] | – | – | –
